{"source": "patent US9101630B2", "about": "“Use of PDGF-R inhibitors for the treatment of lymph node metastasis of gastric cancer” (priority 2010, dated 2015)", "tested_on": "TMK-1 human gastric carcinoma cells implanted into the stomachs of nude mice", "assay": "Treatment of established human gastric cancer tumors growing in murine gastric walls; Lyve-1 immunohistochemical determination of the area of lymphatic vessels", "assay_type": "in vivo, athymic BALB/c nude mice", "conditions": "TMK-1 orthotopic gastric tumors in nude mice, imatinib mesylate 50 mg/kg daily oral gavage for 28 days, started 14 days after implantation, versus control (water), P<0.05", "excerpt": "Animals and orthotopic implantation of tumor cells. Male athymic BALB/c nude mice (Charles River Japan, Tokyo) were maintained under specific pathogen-free conditions and used at 5 weeks of age. Subconfluent gastric cancer cells (TMK-1 or KKLS cells) to be used for implantation were harvested by brief treatment with 0.25% trypsin and 0.02% ethylenediamine tetraacetic acid, and then re-suspended to a final concentration of 2.0×10^7 cells/mL Hanks' solution. With the use of a 30-gauge needle attached to a 1-mL syringe, cells (1×10^6 cells in 50 μl) were implanted into the gastric walls in the nude mice under observation with a zoom stereomicroscope. […]\nTreatment of established human gastric cancer tumors growing in murine gastric walls. Fourteen days after orthotopic implantation of TMK-1 cells, mice (n=10 each group) were randomly assigned to receive one of the following two treatments daily oral gavage of water (control group) or daily oral gavage of imatinib mesylate (50 mg/kg, optimal biological dose as determined previously (Hwang R F, et al. Clin Cancer Res 2003; 9: 6534-44) The treatments continued for 28 days. All therapy experiments were performed twice. The mice bearing orthotopic tumors were euthanised by methophane on day 29. For immunohistochemistry, the tumor tissues were fixed in formalin and embedded in paraffin. […]", "note": "Structures can show the parent of a compound that is named as a salt."}
{"smiles": "Cc1ccc(NC(=O)c2ccc(CN3CCN(C)CC3)cc2)cc1Nc1nccc(-c2cccnc2)n1", "note": "[imatinib mesylate]", "values": [{"measurement": "area of lymphatic vessels in tumors (Lyve-1 immunohistochemistry)", "result": "reduced areas of lymphatic vessels"}, {"measurement": "area of lymphatic vessels in tumors (Lyve-1 immunohistochemistry)", "setting": "listed as imatinib", "result": "significantly reduced the area of lymphatic vessels"}]}
